Results as given in the supplement of paper PMC10307832.

Compound: CCn1c(-c2nonc2N)nc2c(C#CC(C)(C)O)ncc(OC[C@H]3CCCNC3)c21 + Cc1nc(NC(=O)N2CCC[C@H]2C(N)=O)sc1-c1ccnc(C(C)(C)C(F)(F)F)c1 [Alpelisib] (partner 2 µM)
Assay: relative viability (nuclei count vs DMSO), 5 days (fraction); higher = more cells survive
Details: first compound 0.01 µM
In short: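 Relative viability equals treated-well nuclei counts divided by vehicle-well nuclei counts. Counts came from 4× images of lung cancer cell lines grown in 1536-well plates for 5 days after pin-tool dosing on the day after seeding. Dosing used one drug alone or a fixed anchor-drug dose plus five library-drug doses (not always all listed) in √10 steps, and values are medians of duplicate plates.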

| Cell Line | relative viability |
| --- | --- |
| NCI-H3122 | 0.869 |
| NCI-H1437 | 0.895 |
| NCI-H1755 | 0.943 |
| HCC-15 | 0.868 |
| NCI-H1793 | 0.815 |
| PC-14 | 0.945 |
| EKVX | 0.937 |
| LC-2-ad | 0.898 |
| NCI-H1944 | 0.886 |
| NCI-H1975 | 0.716 |
| RERF-LC-KJ | 0.886 |
| ABC-1 | 0.849 |
| NCI-H358 | 0.896 |
| NCI-H650 | 1.1 |
| PC-3 [JPC-3] | 1.16 |

Same assay, conditions: first compound 0.03162 µM

| Cell Line | relative viability |
| --- | --- |
| HCC-78 | 0.372 |
| NCI-H322M | 0.765 |
| LCLC-97TM1 | 0.278 |
| A-427 | 1.11 |
| NCI-H441 | 0.891 |
| NCI-H1734 | 0.624 |
| NCI-H460 | 0.496 |
| NCI-H2347 | 0.97 |
| NCI-H1395 | 1.35 |
| 201T | 0.992 |
| NCI-H1915 | 1.06 |
| HCC-827 | 0.93 |
| LXF-289 | 1.02 |
| NCI-H23 | 0.717 |
| NCI-H647 | 1.17 |
| CAL-12T | 1.33 |
| NCI-H1651 | 0.879 |

| Cell Line | relative viability |
| --- | --- |
| EPLC-272H | 1.02 |
| NCI-H1355 | 0.732 |
| NCI-H3122 | 0.71 |
| NCI-H1437 | 0.964 |
| NCI-H1755 | 0.944 |
| HCC-15 | 0.945 |
| NCI-H1793 | 0.812 |
| PC-14 | 0.909 |
| EKVX | 0.943 |
| LC-2-ad | 0.973 |
| NCI-H1944 | 0.759 |
| NCI-H1975 | 0.656 |
| RERF-LC-KJ | 0.958 |
| ABC-1 | 0.961 |
| NCI-H358 | 0.784 |
| NCI-H650 | 1.21 |
| PC-3 [JPC-3] | 1.02 |

Same assay, conditions: first compound 0.1 µM

| Cell Line | relative viability |
| --- | --- |
| HCC-78 | 0.351 |
| NCI-H322M | 0.121 |
| LCLC-97TM1 | 0.224 |
| A-427 | 1.05 |
| NCI-H441 | 0.749 |
| NCI-H1734 | 0.631 |
| NCI-H460 | 0.477 |
| NCI-H2347 | 0.992 |
| NCI-H1395 | 1.01 |
| 201T | 0.99 |
| NCI-H1915 | 1.02 |
| HCC-827 | 0.948 |
| LXF-289 | 1.01 |
| NCI-H23 | 0.686 |
| NCI-H647 | 1.02 |
| CAL-12T | 1.21 |
| NCI-H1651 | 0.937 |

| Cell Line | relative viability |
| --- | --- |
| EPLC-272H | 0.989 |
| NCI-H1355 | 0.786 |
| NCI-H3122 | 0.795 |
| NCI-H1437 | 0.965 |
| NCI-H1755 | 0.896 |
| HCC-15 | 0.86 |
| NCI-H1793 | 0.508 |
| PC-14 | 1 |
| EKVX | 0.862 |
| LC-2-ad | 0.925 |
| NCI-H1944 | 0.844 |
| NCI-H1975 | 0.623 |
| RERF-LC-KJ | 0.737 |
| ABC-1 | 1.09 |
| NCI-H358 | 0.787 |
| NCI-H650 | 1.02 |
| PC-3 [JPC-3] | 0.977 |

Same assay, conditions: first compound 0.3162 µM

| Cell Line | relative viability |
| --- | --- |
| HCC-78 | 0.307 |
| NCI-H322M | 0.853 |
| LCLC-97TM1 | 0.235 |
| A-427 | 0.997 |
| NCI-H441 | 0.683 |
| NCI-H1734 | 0.655 |
| NCI-H460 | 0.447 |
| NCI-H2347 | 0.972 |
| NCI-H1395 | 0.79 |
| 201T | 0.978 |
| NCI-H1915 | 1.04 |
| HCC-827 | 1 |
| LXF-289 | 0.983 |
| NCI-H23 | 0.528 |
| NCI-H647 | 1.03 |
| CAL-12T | 1.24 |
| NCI-H1651 | 0.917 |

| Cell Line | relative viability |
| --- | --- |
| EPLC-272H | 0.858 |
| NCI-H1355 | 0.825 |
| NCI-H3122 | 0.798 |
| NCI-H1437 | 0.778 |
| NCI-H1755 | 0.916 |
| HCC-15 | 0.832 |
| NCI-H1793 | 0.592 |
| PC-14 | 0.888 |
| EKVX | 0.842 |
| LC-2-ad | 0.823 |
| NCI-H1944 | 0.804 |
| NCI-H1975 | 0.543 |
| RERF-LC-KJ | 0.656 |
| ABC-1 | 0.881 |
| NCI-H358 | 0.687 |
| NCI-H650 | 1.04 |
| PC-3 [JPC-3] | 1.02 |

Same assay, conditions: first compound 1 µM

| Cell Line | relative viability |
| --- | --- |
| HCC-78 | 0.356 |
| NCI-H322M | 0.813 |
| LCLC-97TM1 | 0.257 |
| A-427 | 1.14 |
| NCI-H441 | 0.717 |
| NCI-H1734 | 0.658 |
| NCI-H460 | 0.437 |
| NCI-H2347 | 1.17 |
| NCI-H1395 | 0.76 |
| 201T | 1.02 |
| NCI-H1915 | 1.08 |
| HCC-827 | 1.05 |
| LXF-289 | 1.04 |
| NCI-H23 | 0.588 |
| NCI-H647 | 1.23 |
| CAL-12T | 0.939 |
| NCI-H1651 | 1.19 |
| EPLC-272H | 0.956 |
| NCI-H1355 | 0.82 |
| NCI-H3122 | 0.756 |
| NCI-H1437 | 0.902 |
| NCI-H1755 | 0.981 |
| HCC-15 | 0.946 |
| NCI-H1793 | 0.64 |
| PC-14 | 0.865 |
| EKVX | 0.919 |
